Patent US6441195B1, “Substituted sulphonylamino(thio) carbonyl compounds” (Bayer Aktiengesellschaft, priority 1995, dated 2002)

What was measured:
Format in all cases: in vivo
[1] = system: Ambrosia; experiment: Pre-emergence test/Greenhouse, Ambrosia; conditions: after three weeks
Procedure, shortened: (§1)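 Percent damage relative to untreated control plants, scored three weeks after treatment, is the read-out (0% meaning no effect). Treatment consisted of watering the soil with an emulsified aqueous preparation roughly 24 h after seeds were sown, at constant water volume per area.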

[2] = system: Solanum; experiment: Pre-emergence test/Greenhouse, Solanum; conditions: after three weeks
Procedure, shortened: as §1

[3] = system: Matricaria; experiment: Pre-emergence test/Greenhouse, Matricaria; conditions: after three weeks
Procedure, shortened: as §1

[4] = system: Maize; experiment: Pre-emergence test/Greenhouse, Maize; conditions: in vivo
Procedure, shortened: as §1

[5] = system: weeds; experiment: Pre-emergence test (greenhouse), activity against weeds; conditions: in words
Procedure, shortened: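 Compound formulated in acetone with alkylaryl polyglycol ether emulsifier, diluted in water, and watered onto soil about 24 h after sowing, dosed by application rate per unit area. Damage rated after three weeks as % versus untreated control (0% = no action).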

[6] = system: Sorghum; experiment: Pre-emergence test/Greenhouse, Sorghum; conditions: after three weeks
Procedure, shortened: as §1

[7] = system: Lolium; experiment: Pre-emergence test/Greenhouse, Lolium; conditions: after three weeks
Procedure, shortened: as §1

[8] = system: Soya beans; experiment: Pre-emergence test/Greenhouse, Soya beans; conditions: in vivo
Method: To produce a suitable preparation of the active compound, 1 part by weight of active compound is mixed with the stated amount of solvent, the stated amount of emulsifier is added and the concentrate is diluted with water to the desired concentration.
Seeds of the test plants are sown in normal soil. After about 24 hours, the soil is watered with the preparation of active compound. Advantageously, the amount of water per unit area is kept constant. The active compound concentration in the preparation is not important, only the active compound appliation rate per unit area matters.
After three weeks, the degree of damage to the plants is rated in % damage in comparison to the development of the untreated control.
0%=no action (like untreated control)

[9] = system: Poa; experiment: Pre-emergence test/Greenhouse, Poa; conditions: after three weeks
Procedure, shortened: as §1

| Compound | degree of damage to the plants (% damage vs untreated control), Maize [4] | activity against weeds [5] | degree of damage to the plants (% damage vs untreated control), Soya beans [8] | degree of damage to the plants (% damage vs untreated control), Ambrosia ([1]; 125 g of ai./ha) | degree of damage to the plants (% damage vs untreated control), Solanum ([2]; 125 g of ai./ha) | degree of damage to the plants (% damage vs untreated control), Matricaria ([3]; 125 g of ai./ha) | degree of damage to the plants (% damage vs untreated control), Sorghum ([6]; 125 g of ai./ha) | degree of damage to the plants (% damage vs untreated control), Lolium ([7]; 125 g of ai./ha) | degree of damage to the plants (% damage vs untreated control), Poa ([9]; 125 g of ai./ha) | also measured |
| --- | --- | --- | --- | --- | --- | --- | --- | --- | --- | --- |
| CCOc1nn(C(=O)NS(=O)(=O)c2c(Cl)cccc2C(=O)OC)c(=O)n1C [Example 129] | 10% | very strong activity against weeds | 10% |  |  |  |  |  |  | degree of damage to the plants (% damage vs untreated control), Ambrosia ([1]; 250 g of ai./ha): 60%; degree of damage to the plants (% damage vs untreated control), Solanum ([2]; 250 g of ai./ha): 95%; degree of damage to the plants (% damage vs untreated control), Matricaria ([3]; 250 g of ai./ha): 90%; degree of damage to the plants (% damage vs untreated control), Sorghum ([6]; 250 g of ai./ha): 90%; degree of damage to the plants (% damage vs untreated control), Lolium ([7]; 250 g of ai./ha): 95%; degree of damage to the plants (% damage vs untreated control), Poa ([9]; 250 g of ai./ha): 95% |
| COC(=O)c1cccc(C)c1S(=O)(=O)NC(=O)n1nc(SCC(F)(F)F)n(C2CC2)c1=O [Example 149] | 0% | very strong activity against weeds | 30% | 95% | 95% | 95% | 80% | 95% | 95% |  |
| COC(=O)c1cccc(C)c1S(=O)(=O)NC(=O)n1nc(OCC(F)(F)F)n(C)c1=O [Example 143] | 20% | very strong activity against weeds | 0% |  |  |  |  |  |  | degree of damage to the plants (% damage vs untreated control), Ambrosia ([1]; 60 g of ai./ha): 80%; degree of damage to the plants (% damage vs untreated control), Solanum ([2]; 60 g of ai./ha): 90%; degree of damage to the plants (% damage vs untreated control), Sorghum ([6]; 60 g of ai./ha): 90%; degree of damage to the plants (% damage vs untreated control), Lolium ([7]; 60 g of ai./ha): 90%; degree of damage to the plants (% damage vs untreated control), Poa ([9]; 60 g of ai./ha): 90% |
| COc1nn(C(=O)NS(=O)(=O)c2c(C)cccc2C(=O)OC(C)C)c(=O)n1C [Example 16] |  | very strong activity against weeds | 0% |  |  |  |  |  |  | degree of damage to the plants (% damage vs untreated control), Ambrosia ([1]; 30 g of ai./ha): 95%; degree of damage to the plants (% damage vs untreated control), Solanum ([2]; 30 g of ai./ha): 95%; degree of damage to the plants (% damage vs untreated control), Matricaria ([3]; 30 g of ai./ha): 95%; degree of damage to the plants (% damage vs untreated control), Sorghum ([6]; 30 g of ai./ha): 90%; degree of damage to the plants (% damage vs untreated control), Lolium ([7]; 30 g of ai./ha): 95%; degree of damage to the plants (% damage vs untreated control), Poa ([9]; 30 g of ai./ha): 95% |
| COC(=O)c1cccc(C)c1S(=O)(=O)NC(=O)n1nc(SCCF)n(C)c1=O [Example 152] |  | very strong activity against weeds | 20% | 95% | 95% | 80% | 95% | 95% | 95% |  |
| CCCOc1nn(C(=O)NS(=O)(=O)c2c(C)cccc2C(=O)OC(C)C)c(=O)n1C [Example 17] |  | very strong activity against weeds | 0% |  |  |  |  |  |  | degree of damage to the plants (% damage vs untreated control), Ambrosia ([1]; 30 g of ai./ha): 95%; degree of damage to the plants (% damage vs untreated control), Solanum ([2]; 30 g of ai./ha): 95%; degree of damage to the plants (% damage vs untreated control), Matricaria ([3]; 30 g of ai./ha): 95%; degree of damage to the plants (% damage vs untreated control), Sorghum ([6]; 30 g of ai./ha): 60%; degree of damage to the plants (% damage vs untreated control), Lolium ([7]; 30 g of ai./ha): 80%; degree of damage to the plants (% damage vs untreated control), Poa ([9]; 30 g of ai./ha): 95% |
| CCCOC(=O)c1cccc(C)c1S(=O)(=O)NC(=O)n1nc(OC(C)C)n(C)c1=O [Example 23] | 0% | very strong activity against weeds | 0% | 90% | 90% | 95% | 60% |  | 80% |  |
| COC(=O)c1cccc(C)c1S(=O)(=O)NC(=O)n1nc(SCC(F)(F)F)n(C)c1=O [Example 150] |  | very strong activity against weeds | 10% | 70% | 80% | 80% | 80% | 80% | 90% |  |
